Patent publication US20200157156A1, “GRATELOUPIA CHIANGII-DERIVED LECTIN AND LECTIN GENE CODING FOR THE SAME” (priority 2018, published 2020)
Structures can show the parent of a compound that is named as a salt.

How the values were obtained:
GCL [1] = assay: Glycan microarray (glycan-300 array) binding to GCL; set-up: species or system Grateloupia chiangii; conditions: 50 μg/mL biotinylated lectin; for RFU (Normalized) GCL: Cy3-streptavidin detection
Protocol: A glycan microarray was performed by Ebiogen (Korea). A glycan array kit was purchased from RayBioTech (Norcross, Ga., USA). An array consisting of 300 synthetic glycans printed in quadruplicate on a glass slide was used. Label-based detection was performed according to the manufacturer's protocol. 50 μg/mL of biotinylated lectin was put into wells, and gently shaken for 3 hours or more. The glass slide was washed with 1× washing buffers I and II provided in the kit. The glycan-lectin binding was detected by reacting with Cy3 equivalent dye-conjugated streptavidin at room temperature for an hour. Signals for Cy3 detection were visualized using a microarray laser scanner (Genfix 4100A, Molecular Devices, Sunnyvale, Calif., USA) (excitation at 554 nm, and emission at 568 nm). Data extraction was performed using microarray assay software Genfix. The […] array data was analyzed using RayBioTech (RayBioTech) software.
To determine the carbohydrate specificity, a glycan microarray was carried out using a glycan-300 array kit in which 300 different carbohydrates were immobilized. Referring to FIGS. 6 and 7 and Table 2 below, 18 of the 300 tested carbohydrates produced at least 1,000 positive signals. GCL produced weak binding signals to the monosaccharides, that is, β-Glc-sp, β-Gal-sp, and α-Man-sp. Normalized signal intensities were 2,579, 2,269, and 2,194, respectively. Also, the GCL was able to bind to maltotetraose-β-Sp1 with a signal intensity of 2,705. […] It was that high-mannan structures, that is, Man-α-1,6-(Man-α-1,3-), Man-α-1,6-(GlcNAc-β-1,2-Man-α-1,3-)Man-β-1,4-GlcNAc-β-1, and 4-GlcNAc-Sp5, interacted with the GCL.

fetuin = assay: cell-based or functional assay
[2] = test system: herpes simplex virus 2 (HSV2) (MS); assay: Antiviral effect, CPE inhibition / MTT, HSV2; assay type: cell-based
Protocol: (§1) The antiviral effect was determined through cell viability, and the like using a virus-induced cytopathic effect (CPE) inhibition method and an MTT method.

[3] = test system: herpes simplex virus 1 (HSV1) (F); assay: Antiviral effect, CPE inhibition / MTT, HSV1; assay type: cell-based
Protocol: as §1

in vitro = assay: in vitro
Protocol: as §1

GCL [4] = assay: Hemagglutination inhibition test (carbohydrate specificity of GCL); assay type: cell-based, Grateloupia chiangii; conditions: 4 haemagglutination activity units of GCL, equine red blood cells
Protocol: The carbohydrate specificity was determined by means of a hemagglutination inhibition test. Proteins and carbohydrates used for the inhibition test included D-glucose (D-Glc), D-mannose (D-Man), D-galactose (D-Gal), N-acetyl-D-glucosamine (GlcNAc), N-acetyl-D-galactosamine (GalNAc), D-fucose (F-Fuc), fructose (Fru), lactose (Lac), and fetuin. A sample (25 μL) having 4 haemagglutination activity units was mixed with each of the carbohydrates (25 μL), and 25 μL of a mixture was removed from each well. An equivalent amount of a 4% suspension of equine red blood cells was added to, and mixed with the sample. The plate was kept at room temperature for 30 minutes, and then confirmed for inhibitory activities.

[5] = Effect of divalent cations on GCL activity; conditions: presence of divalent cations (Mg2+ and Ca2+)
Protocol: (§2) The thermal stability of GCL was measured at different temperatures (ranging from 20 to 90° C.). The GCL activities were not affected until the temperature reached 30° C. […] FIG. 5 is a graph for analyzing a change in degree of activity of CGL according to divalent cations added.

ovine red blood cells = assay: Hemagglutination assay, ovine red blood cells; assay type: cell-based, sheep; conditions: 4% suspension, room temperature, 30 minutes
Protocol: (§3) For a hemagglutination assay, horse and sheep blood was purchased (Hanil Comed, Korea). The blood was washed with phosphate buffered saline (PBS, pH 7.3) until a red color of a supernatant disappeared. Each of red blood cells was prepared into a 4% suspension in PBS. The sample was serially diluted in a 96-well U-bottom plate, and a 4% suspension of red blood cells was then added to each well. The sample was kept at room temperature for 30 minutes, and then confirmed for agglutination activities.

[6] = Thermal stability of GCL activity; assay type: physicochemical
Protocol: as §2

equine red blood cells = assay: Hemagglutination assay, equine red blood cells; assay type: cell-based, horse
Protocol: as §3

[7] = 4% suspension, room temperature, 30 minutes

## Glc-α-1,2-Gal-α-Sp [G0048]
GCL [1]
  RFU (Normalized) GCL: 1,173 ± 110 RFU

## Grateloupia chiangii-derived lectin (GCL)
fetuin
  inhibition of haemagglutination activity of GCL (4 haemagglutination activity units, equine red blood cells): 195 µg/mL

## Gal-β-1,4-Glc-β-Sp [G0016]
GCL [1]
  RFU (Normalized) GCL: 1,260 ± 126 RFU

## D-cellose-β-Sp1 [G0087]
GCL [1]
  RFU (Normalized) GCL: 1,165 ± 82 RFU

## α-Man-Sp [G0003]
GCL [1]
  Normalized signal intensity: 2,194
  RFU (Normalized) GCL: 2,093 ± 294 RFU

## Nc1nc2c(ncn2COCCO)c(=O)[nH]1 [Acyclovir]
[2]
  Selective index HSV2 (MS): >35
[2]; Human alphaherpesvirus 2, footnote: concentration, μM
  EC50: 2.87 µM
[3]
  Selective index HSV1 (F): >192
[3]; Human alphaherpesvirus 1, footnote: concentration, μM
  EC50: 0.52 µM
In vitro
  CC50: > 100 µg/mL

## pentosan polysulfate [Penosan polysulfate]
[2]
  Antiviral activity (EC50) HSV2 (MS): 2.10 µg/mL
[3]
  Antiviral activity (EC50) HSV1 (F): 4.77 µg/mL
In vitro
  Toxicity CC50: >100 µg/mL

## Maltohexaose-β-Sp1 [G0082]
GCL [1]
  Binding of GCL to glycan: strongly bound
  RFU (Normalized) GCL: 7,524 ± 1,976 RFU

## CN[C@@H]1[C@@H](O)[C@@H](O[C@@H]2[C@@H](O)[C@H](O[C@H]3OC(CN)=CC[C@H]3N)[C@@H](N)C[C@H]2N)OC[C@]1(C)O [G0056, Sisomicin Sulfate]
GCL [1]
  RFU (Normalized) GCL: 1,583 ± 177 RFU

## O=C(CO)[C@@H](O)[C@H](O)[C@H](O)CO [fructose]
GCL [4]
  Concentration inhibiting haemagglutination activity of GCL: 250 mM

## Maltotetraose-β-Sp1 [G0080]
GCL [1]
  Normalized signal intensity: 2,705
  RFU (Normalized) GCL: 2,577 ± 351 RFU

## Man-α-1,6-(Man-α-1,3-)Man-α-1,6-[Gal-β-1,4-(Fuc-α-1,3-)GlcNAc-β-1,2-Man-α-1,3-]Man-β-1,4-GlcNAc-β-1,4-GlcNAc-Sp5 [N-014]
GCL [1]
  RFU (Normalized) GCL: 1129 ± 151 RFU

## Glc-α-1,4-Glc-β-Sp1 [G0076]
GCL [1]
  RFU (Normalized) GCL: 1,238 ± 28 RFU

## O=C[C@@H](O)[C@@H](O)[C@H](O)[C@H](O)CO [D-mannose]
GCL [4]
  Concentration inhibiting haemagglutination activity of GCL: 125 mM

## Gal-β-1,4-Glc-Sp [H0400]
GCL [1]
  RFU (Normalized) GCL: 1,044 ± 110 RFU

## dextran sulfate 8000
[2]
  Antiviral activity (EC50) HSV2 (MS): 4.52 µg/mL
[3]
  Antiviral activity (EC50) HSV1 (F): 15.54 µg/mL

## Man-α-1,6-(Man-α-1,3-)Man-α-1,6-(Gal-β-1,4-GlcNAc-β-1,2-Man-α-1,3-)Man-β-1,4-GlcNAc-β-1,4-GlcNAc-Sp5 [N-011]
GCL [1]
  RFU (Normalized) GCL: 1148 ± 173 RFU

## Maltoheptaose-β-Sp1 [G0083]
GCL [1]
  Binding of GCL to glycan: strongly bound
  RFU (Normalized) GCL: 8,132 ± 1,810 RFU

## Gal-α-1,4-Gal-β-1,4-Glc-β-Sp [G0018]
GCL [1]
  RFU (Normalized) GCL: 1,124 ± 47 RFU

## β-GlcNAc-Sp [G0006]
GCL [1]
  RFU (Normalized) GCL: 1,104 ± 133 RFU

## β-Gal-Sp [G0002]
GCL [1]
  Normalized signal intensity: 2,269
  RFU (Normalized) GCL: 2,165 ± 237 RFU

## β-Glc-Sp [G0001]
GCL [1]
  Normalized signal intensity: 2,579
  RFU (Normalized) GCL: 2,273 ± 544 RFU

## Man-α-1,6-(Man-α-1,3-)Man-α-1,6-(GlcNAc-β-1,2-Man-α-1,3-)Man-β-1,4-GlcNAc-β-1,4-GlcNAc-Sp5 [N-010]
GCL [1]
  RFU (Normalized) GCL: 1142 ± 116 RFU

B1: GCL: lectin protein purified from red alga Grateloupia chiangii by D-mannose affinity chromatography, SEQ ID NO: 1, about 25 kDa (protein)
chain: MVVSNRLVSGESLHRGQHIISSDQHFMLVHQYDGNVVLYDVAGSGSGKPLWSTNTYGSHTTVFKMQEDSNLVLYATGGKPIWASDTHGSGGRFLEMQNDGNLVVYTDVGKPKWASDTHQGIAPRSEISVNQVLRIREGLHSANKRNELILQNDGNLVLSKNGSTAWSSGTAGTGANVLVLQIDGNLVLYNDTKSVWASGSMNKGGRTAVMQDDGNFVLYAEGGKPVWATNT
modifications: GLC
[2]
  Antiviral activity (EC50) HSV2 (MS): 0.036 µg/mL
[5]
  Change in activity by divalent cations: not highly affected
Ovine red blood cells
  Agglutination of ovine red blood cells: did not agglutinate
[3]
  Antiviral activity (EC50) HSV1 (F): 0.18 µg/mL
In vitro
  Toxicity CC50: >5 µg/mL
[6]; at 40° C.
  GCL activity according to temperature: Half of the activities were lost
[6]; heated at 90° C. for 30 minutes
  Initial activities maintained: approximately 15%
[6]; until the temperature reached 30° C.
  GCL activity according to temperature: not affected
Equine red blood cells; [7]
  Agglutination of equine red blood cells: agglutinated
  Minimal concentration for agglutination of equine red blood cells: 0.8 µg/mL
Equine red blood cells; hemagglutination titer per mg protein
  Specific activity (Titer/mg): 51,200 Titer/mg
Equine red blood cells; hemagglutination titer, purification step from 30 g sample
  Total activity (Titer): 33,280 Titer

B2: fetuin (protein, UniProt P12763 19-359, looked up)
Alpha-2-HS-glycoprotein: IPLDPVAGYKEPACDDPDTEQAALAAVDYINKHLPRGYKHTLNQIDSVKVWPRRPTGEVYDIEIDTLETTCHVLDPTPLANCSVRQQTQHAVEGDCDIHVLKQDGQFSVLFTKCDSSPDSAEDVRKLCPDCPLLAPLNDSRVVHAVEVALATFNAESNGSYLQLVEISRAQFVPLPVSVSVEFAVAATDCIAKEVVDPTKCNLLAEKQYGFCKGSVIQKALGGEDVRVTCTLFQTQPVIPQPQPDGAEAEAPSAVPDAAGPTPSAAGPPVASVVVGPSVVAVPLPLHRAHYDLRHTFSGVASVESSSGEAFHVGKTPIVGQPSIPGGPVRLCPGRIRYFKI
GCL [4]
  Concentration inhibiting haemagglutination activity of GCL: 195 µg/mL
